Assay results from article PMC9866339, “In Silico and In Vitro Study of Janus Kinases Inhibitors from Naphthoquinones” (Molecules, 2023).
Like-named read-outs stand apart in the source and are kept apart here.

What was measured:
TF1 cells [1] = assay: Presto Blue cytotoxicity assay on TF1 cells; type: cell-based, human; conditions: for Cytotoxicity screening on TF1 cells: 10 μM, Presto Blue assay, result in words; for IC50: Homo sapiens, TF-1, 72 h, read-out: IC50 against TF1 cell viability
HEL cells = assay: Presto Blue cytotoxicity assay on HEL cells; type: cell-based, human; conditions: for Cytotoxicity screening on HEL cells: 10 μM, result in words; for IC50: Homo sapiens, HEL, 72 h, read-out: IC50 against HEL cell viability
JAK1 = conditions: read-out: IC50 JAK1; cited from earlier work
human keratinocytes = system: human keratinocytes; design: method as in PMID 28250347, PMID 22845014; conditions: result in words; cited from earlier work
TF1 cells [2] = conditions: at IC50, 72 h, dot plot quadrant
TF1 cells [3] = conditions: at IC50, 72 h, dot plot quadrant; remark: listed apart in the source
JAK2 = target: T1, JAK2 (Homo sapiens, UniProt O60674); assay: ADP-Glo kinase assay, JAK2; type: biochemical; conditions: 5 μM ATP, read-out: IC50 ± SEM JAK2
T1 construct: purchased Sigma-Aldrich SRP0171
T1 sequence (O60674 808-1132 limits assumed): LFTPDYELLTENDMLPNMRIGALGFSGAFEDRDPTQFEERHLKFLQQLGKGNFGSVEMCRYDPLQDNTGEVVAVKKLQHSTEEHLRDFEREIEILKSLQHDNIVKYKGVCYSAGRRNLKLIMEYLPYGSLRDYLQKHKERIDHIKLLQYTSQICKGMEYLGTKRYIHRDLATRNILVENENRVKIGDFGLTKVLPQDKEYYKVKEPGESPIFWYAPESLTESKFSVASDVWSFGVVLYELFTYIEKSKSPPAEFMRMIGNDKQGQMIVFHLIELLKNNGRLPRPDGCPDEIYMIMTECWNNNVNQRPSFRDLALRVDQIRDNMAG

JAK3 = target: T2, JAK3 (Homo sapiens, UniProt P52333); assay: ADP-Glo kinase assay, JAK3; type: biochemical; conditions: 5 μM ATP, read-out: IC50 ± SEM JAK3
T2 construct: purchased Sigma-Aldrich SRP0173
T2 sequence (P52333 781-1124 limits assumed): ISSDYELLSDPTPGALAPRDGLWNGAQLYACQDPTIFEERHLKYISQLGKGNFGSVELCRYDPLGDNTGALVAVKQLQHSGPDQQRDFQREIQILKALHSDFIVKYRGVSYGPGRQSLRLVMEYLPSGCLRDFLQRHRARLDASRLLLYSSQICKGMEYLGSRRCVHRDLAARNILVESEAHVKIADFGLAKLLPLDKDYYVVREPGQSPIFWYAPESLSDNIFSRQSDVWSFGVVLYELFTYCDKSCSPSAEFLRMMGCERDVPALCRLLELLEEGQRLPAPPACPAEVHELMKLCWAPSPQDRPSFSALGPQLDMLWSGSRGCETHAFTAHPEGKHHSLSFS

HEL cell = conditions: read-out: IC50 HEL cell growth; cited from earlier work

Compound: O=C1C=C(O)C(=O)c2ccccc21 [Lawsone, 2-hydroxy-1,4-naphthoquinone]
- Cytotoxicity screening on TF1 cells (TF1 cells [1]): inhibited the growth of both cell types poorly
- Cytotoxicity screening on HEL cells (HEL cells; Presto Blue assay): inhibited the growth of both cell types poorly

Compound: N#CC[C@H](C1CCCC1)n1cc(-c2ncnc3[nH]ccc23)cn1 [Ruxolitinib, ruxolitinib, reference compound]
- IC50 (TF1 cells [1]): 12.2 ± 0.58 µM
- IC50 (HEL cells): 26.04 ± 0.26 µM

Compound: CC1=CC(=O)c2ccccc2C1=O [Menadione, menadione]
- Cytotoxicity screening on HEL cells (HEL cells; Presto Blue assay): high cytotoxicity
- IC50 (HEL cells; Presto Blue assay, mean ± SEM): 7.99 ± 1.22 µM

Compound: CCC(=O)c1cc2c(o1)C(=O)c1ccccc1C2=O [2′-methyl napabucasin]
- Cytotoxicity screening on TF1 cells (TF1 cells [1]): highly potent cell growth inhibition
- IC50 (TF1 cells [1]): 18.1 µM
- Cytotoxicity against human keratinocytes (human keratinocytes): potent cytotoxicity
- Apoptotic cells, caspase 3/7 (TF1 cells [2]): 13.50%
- Apoptotic/Dead cells, caspase 3/7 (TF1 cells [2]): 22.35%
- Dead cells, caspase 3/7 (TF1 cells [2]): 0.70%
- Live cells, caspase 3/7 (TF1 cells [2]): 63.45%
- Dead cells, annexin V (TF1 cells [3]): 1.10%
- Early Apop. cells, annexin V (TF1 cells [3]): 25.42%
- Late Apop./Dead cells, annexin V (TF1 cells [3]): 51.16%
- Live cells, annexin V (TF1 cells [3]): 22.32%
- IC50 (JAK2): 11.1 ± 0.13 nM
- Cytotoxicity screening on HEL cells (HEL cells; Presto Blue assay): highly potent cell growth inhibition
- IC50 (HEL cells): 6.65 µM
- IC50 (JAK3): 10.2 ± 0.66 nM

Compound: O=C1C=CC(=O)c2c(O)cccc21 [Juglone, juglone]
- IC50 (HEL cells; Presto Blue assay, mean ± SEM): 8.67 ± 0.17 µM

Compound: N#Cc1ccc(C2C3=C(CCCC3=O)OC3=C2C(=O)c2ccccc2C3=O)cc1 (stereo not shown) [CM363]
- IC50 (HEL cell): 1300 nM

Compound: CC(=O)c1cc2c(o1)C(=O)c1ccccc1C2=O [Napabucasin, napabucasin]
- Cytotoxicity screening on TF1 cells (TF1 cells [1]): highly potent cell growth inhibition
- IC50 (TF1 cells [1]): 9.57 µM
- Apoptotic cells, caspase 3/7 (TF1 cells [2]): 25.85%
- Apoptotic/Dead cells, caspase 3/7 (TF1 cells [2]): 18.10%
- Dead cells, caspase 3/7 (TF1 cells [2]): 0.30%
- Live cells, caspase 3/7 (TF1 cells [2]): 55.75%
- Dead cells, annexin V (TF1 cells [3]): 3.50%
- Early Apop. cells, annexin V (TF1 cells [3]): 29.80%
- Late Apop./Dead cells, annexin V (TF1 cells [3]): 39.24%
- IC50 (JAK2): 12.6 ± 2.12 nM
- Cytotoxicity screening on HEL cells (HEL cells; Presto Blue assay): highly potent cell growth inhibition
- IC50 (HEL cells): 3.31 µM
- IC50 (JAK3): 14.8 ± 2.37 nM
